In data set [1] the test system is pluripotent stem cell-derived cardiomyocytes. To be noted: cited from earlier work.
The next data set concerns ROCK2. The note with it: ROCK1/ROCK2; cited from earlier work.
The subject of data set [2] is iPS6.1 cells. Kind of data set: iPS6.1 Growth Factor Titration #1. Format: cell-based, human. The note with it: hbFGF 0 or 25 ng/mL, FIGS. 29A-B. The method, then: (§1) Aggregate formation and cardiac induction procedures of those iPS cells at different initial densities were performed essentially the same as described in Examples 4 except different concentrations of human HGF (hHGF) and FGF were applied to Aggregate Formation Medium, Aggregate Transition Medium and Cardiac Induction Medium.
Conditions without FGF had virtually no surviving aggregates and no measurable cardiomyocytes (FIGS. 29A-B). On the other hand, all conditions with FGF yielded cardiomyocytes independent of HGF concentration (FIGS. 29A-B).

The next data set has as its system H9-TGZ cells. Kind of data set: H9-TGZ Growth Factor Titration #2. Format: cell-based, human. The note with it: FIGS. 31A-C. The method, then: as §1
While the iPS6.1 optimization was underway, a separate series of experiments was conducted to optimize the growth factor concentrations for the H9-TGZ cells. […] Therefore, the FGF range tested was higher than that in the recent iPS6.1 experiments. This experiment confirmed that optimum cardiomyocyte production requires 100-150 ng/mL FGF with the H9-TGZ cells (FIGS. 31A-C).

The test system of data set [3] is iPS6.1 cells. Kind of data set: iPS6.1 Growth Factor Titration #2. The format is cell-based, human. The note with it: hbFGF 3-100 ng/mL, FIGS. 30A-B. As for the experimental part: as §1
Based on the results of the first experiment (see FIGS. 29A-B), the second iPS6.1 growth factor titration focused on the lower dose range for both FGF and HGF (FIGS. 30A-B). […] However, it is important to note that in no case did the omission of HGF lead to the failure of a condition which was otherwise successful in the presence of HGF.

Data set [4] deals with iPS6.1 cells. Kind of data set: iPS6.1 Four Corners experiment, FGF x HGF cardiac induction. The note with it: iPS6.1 cells, 25 ng/mL FGF and/or 50 ng/mL HGF, single T25 flask, day 14; listed as FGF only. Format: cell-based, human. As for the experimental part: as §1
Concurrent with the second iPS growth factor titration, a simple experiment (Table 19) was set up with iPS6.1 cells to test the 2×2 matrix of 0 and 25 ng/mL FGF and 0 and 50 ng/mL HGF. The positive concentrations of FGF and HGF were chosen based on the current best practices for iPS6.1 cells at the time and were identical to the conditions used for cardiac induction of H1 cells in both the plated and suspension processes. This experiment confirmed previous work showing the necessity of FGF for the process.

A further data set concerns iPS 6.1 and iPS 6.1 MRB. Kind of data set: iPS cell passaging with NaCitrate in Double Stacks. The format is cell-based, human. As for the experimental part:
Dissociated iPS cells were rinsed with D-PBS (Dulbecco's Phosphate Buffered Saline) free of Ca^2+ and Mg^2+ and the media were aspirated. The cells were then incubated with appropriate amount (i.e., 1 mL for one well of 6-well plate, 15 mL for T-150 flask, etc) of 15 mM NaCitrate, 165 mM KCl, pH 7.3, OSM 340, at room temperature for 6-15 minutes. After incubation, the NaCitrate solution were aspirated with the cells still loosely attached. The cells were resuspended in appropriate amount of TeSR with 1 μM H1152 and distributed to Matrigel™ surfaced vessel.
For scale up production of the starting material from T150 flasks to Corning Double Stacks, and for assessment of the ability of iPS cells to be passaged as single cells/small clumps with NaCitrate, iPS 6.1 and iPS 6.1 MRB were passaged with 15 mM NaCitrate as single cells or small cell clumps into double stacks while maintaining T150 control flasks split with dispase (see FIG. 1 for experimental design). […] Cells were assessed at passage 4 and passage 7 with cardiogenesis, pluripotency panel, and karyotype. […] Aggregate images and cTnT staining for cardiomyocytes were analyzed on day 14 after splitting (FIGS. 4A-D, FIGS. 5A-C, FIGS. 6A-B, FIGS. 7A-C). Pluripotency profiles of iPS cells after passaging with NaCitrate and dispase was compared by flow cytometry using five pluripotency markers (FIGS. 8A-C). It appears safe to passage iPS cells at least four times with the NaCitrate method.
Cardiogenesis was also analyzed for those iPS cells after passaging with NaCitrate and data were compiled in FIG. 9. […] The last three “spinner” samples come from Double Stack iPS 6.1 MRB cells that were left over from various Double stack harvests. An average yield of 110e6 cells/L was obtained in 1 L spinner with cells passaged in double stacks with NaCitrate.

pIC50: −log10 of the molar value. “And” between values parts separate entries of the source, which are not always exact repeats. Equal values may be shown once.

Results on 6 compounds are retold here after patent US10604739B2, “Cardiomyocyte production” (Cellular Dynamics International, Inc., priority 2009, dated 2020).

In the case of `COc1ccc([C@@H]2Sc3ccccc3N(CCN(C)C)C(=O)[C@@H]2OC(C)=O)cc1` [diltiazem], the Contractile activity entry in data set [1] is listed as “inhibits contractile activity in a dose-dependent manner”.

Broadly, the pIC50 is the IC50 on a negative log10 scale, so that one unit is a factor of ten. With `C[C@@H](N)[C@H]1CC[C@H](C(=O)Nc2ccncc2)CC1` [Y-27632], in the data set on ROCK2, the pIC50 was […].

As to `CNC[C@H](O)c1cccc(O)c1` [phenylephrine], in data set [1], the Chronotropic effect entry was “positive chronotropic effect”.

In the case of “FGF: human recombinant basic FGF, R&D systems”, in the data set on iPS6.1 cells [2], the “Requirement for CM differentiation process” value is listed as “required for the CM differentiation process to be successful”. Also, the “FGF concentration required for optimum cardiomyocyte production” value with H9-TGZ cells lay within 100 to 150 ng/mL. For the same compound, in the data set with iPS6.1 cells [3], the “FGF dose response (aggregate survival, cardiogenesis)” value was “too little FGF led to poor aggregate survival and high doses had survival but lacked cardiogenesis”. Moreover, the “% cTNT+” value with iPS6.1 cells [4] was 11.2% and 11.9% and 13.1%.

Regarding `O=C([O-])CC(O)(CC(=O)[O-])C(=O)[O-].[Na+].[Na+].[Na+]` [NaCitrate], the “Average yield of cardiomyocytes” value in the data set with iPS 6.1 and iPS 6.1 MRB (1 L spinner, cells passaged in double stacks with NaCitrate) amounted to 110e6 cells/L. Besides, in the data set with iPS 6.1 and iPS 6.1 MRB (Double Stack NaCitrate conditions, 15 mM NaCitrate), the Doubling time was roughly 30 h. In addition, the Karyotype entry in the data set on iPS 6.1 and iPS 6.1 MRB (cells split 4 times with NaCitrate) is “maintained a normal karyotype”.

In the case of `CC(C)NCC(O)c1ccc(O)c(O)c1` (centres unmarked) [isoprenaline], the Chronotropic effect entry in data set [1] is on record as “positive chronotropic effect”.
